Assay [1] concerns ISC-enriched organoids. The experiment in a line: Primary screen, 384-well 2.5-D organoid differentiation (ENR+CD, 6 days): basal lysozyme secretion (LYZ.NS). The format is cell-based, murine. The settings on record: primary screen; for Dose.FC.LYZ.NS: ENR+CD 6 days, FC vs plate median; for Z.LYZ.NS: standard z score of FC. The text has this:
(§1) High-throughput screening.

Assay [2] concerns ISC-enriched organoids. Description: Primary screen, 384-well 2.5-D organoid differentiation (ENR+CD, 6 days): carbachol-induced lysozyme secretion (LYZ.S). The class given is cell-based, murine. The settings on record: primary screen, ENR+CD 6 days, FC vs plate median.
Text: as §1

Assay [3] deals with ISC-enriched organoids. Description: Primary screen, 384-well 2.5-D organoid differentiation (ENR+CD, 6 days, Target Selective Inhibitor Library, vs whole-plate median): ATP (CellTiter-Glo 3D, CTG). As to conditions: primary screen; for Dose.FC.CTG: ENR+CD 6 days, FC vs plate median; for Z.CTG: standard z score of FC.

With `COc1cc(N2CCC(N)CC2)ccc1Nc1ncc(Cl)c(-c2c[nH]c3ccccc23)n1` [AZD3463], the Dose.FC.LYZ.NS was −0.147 log 2 fold change in assay [1] (dose 0.08 uM), −0.190 log 2 fold change in assay [1] (dose 0.40 uM), −0.232 log 2 fold change in assay [1] (dose 2.00 uM) and −0.209 log 2 fold change in assay [1] (dose 10.00 uM). Also, the Z.LYZ.NS was −1.279 in assay [1] (dose 0.08 uM), −1.652 in assay [1] (dose 0.40 uM), −2.021 in assay [1] (dose 2.00 uM) and −1.820 in assay [1] (dose 10.00 uM). The Dose.FC.LYZ.S in assay [2] (dose 0.08 uM) was −0.199 log 2 fold change; in assay [2] (dose 0.40 uM) it was −0.293 log 2 fold change; in assay [2] (dose 2.00 uM), −0.315 log 2 fold change; in assay [2] (dose 10.00 uM), −0.328 log 2 fold change. In addition, the Dose.FC.CTG is listed as −0.275 log 2 fold change in assay [3] (dose 0.08 uM), −0.341 log 2 fold change in assay [3] (dose 0.40 uM), −0.772 log 2 fold change in assay [3] (dose 2.00 uM) and −0.960 log 2 fold change in assay [3] (dose 10.00 uM). Moreover, the Z.CTG is on record as −0.657 in assay [3] (dose 0.08 uM), −0.814 in assay [3] (dose 0.40 uM), −1.843 in assay [3] (dose 2.00 uM) and −2.293 in assay [3] (dose 10.00 uM).
Regarding `Cc1cc([C@@H](C)Nc2ccccc2C(=O)O)c2nc(N3CCOCC3)cc(=O)n2c1` [AZD6482], the Dose.FC.LYZ.NS in assay [1] (dose 0.08 uM) was 0.108 log 2 fold change; in assay [1] (dose 0.40 uM) it was 0.076 log 2 fold change; in assay [1] (dose 2.00 uM), −0.130 log 2 fold change; in assay [1] (dose 10.00 uM) it was −0.248 log 2 fold change. The Z.LYZ.NS is recorded as 0.944 in assay [1] (dose 0.08 uM), 0.660 in assay [1] (dose 0.40 uM), −1.129 in assay [1] (dose 2.00 uM) and −2.160 in assay [1] (dose 10.00 uM). Besides, the Dose.FC.LYZ.S in assay [2] (dose 0.08 uM) is reported as 0.182 log 2 fold change; in assay [2] (dose 0.40 uM) it was 0.156 log 2 fold change; in assay [2] (dose 2.00 uM), −0.114 log 2 fold change; in assay [2] (dose 10.00 uM) it was −0.253 log 2 fold change. Also, the Dose.FC.CTG is given as 0.240 log 2 fold change in assay [3] (dose 0.08 uM), 0.223 log 2 fold change in assay [3] (dose 0.40 uM), −0.509 log 2 fold change in assay [3] (dose 2.00 uM) and −1.203 log 2 fold change in assay [3] (dose 10.00 uM). Besides, the Z.CTG in assay [3] (dose 0.08 uM) was 0.572; in assay [3] (dose 0.40 uM), 0.533; in assay [3] (dose 2.00 uM) it was −1.215; in assay [3] (dose 10.00 uM), −2.874.
Regarding `CN(C)C(=O)c1ccc(S(=O)(=O)c2ccc(NC(=O)[C@@](C)(O)C(F)(F)F)c(Cl)c2)cc1` [AZD7545], the Dose.FC.LYZ.NS in assay [1] (dose 0.08 uM) is 0.087 log 2 fold change; in assay [1] (dose 0.40 uM), −0.028 log 2 fold change; in assay [1] (dose 2.00 uM), −0.018 log 2 fold change; in assay [1] (dose 10.00 uM) it was −0.051 log 2 fold change. In addition, the Z.LYZ.NS is listed as 0.758 in assay [1] (dose 0.08 uM), −0.245 in assay [1] (dose 0.40 uM), −0.155 in assay [1] (dose 2.00 uM) and −0.441 in assay [1] (dose 10.00 uM). The Dose.FC.LYZ.S in assay [2] (dose 0.08 uM) was 0.111 log 2 fold change; in assay [2] (dose 0.40 uM), −0.017 log 2 fold change; in assay [2] (dose 2.00 uM), −0.148 log 2 fold change; in assay [2] (dose 10.00 uM), −0.104 log 2 fold change. In addition, the Dose.FC.CTG was −0.334 log 2 fold change in assay [3] (dose 0.08 uM), −0.158 log 2 fold change in assay [3] (dose 0.40 uM), −0.255 log 2 fold change in assay [3] (dose 2.00 uM) and −0.350 log 2 fold change in assay [3] (dose 10.00 uM). In addition, the Z.CTG was −0.798 in assay [3] (dose 0.08 uM), −0.378 in assay [3] (dose 0.40 uM), −0.608 in assay [3] (dose 2.00 uM) and −0.836 in assay [3] (dose 10.00 uM).

These data come from patent US20230398130A1, “METHODS AND COMPOSITIONS FOR DIFFERENTIATING STEM CELLS” (Massachusetts Institute of Technology, priority 2020, published 2023).
